Assay results from US6624182B1, “Hydroxyphenylvinylthiazoles” (Ciba Specialty Chemicals Corporation, priority 1999, dated 2003).

Columns and labels:
E. coli = experiment: Determination of the minimum inhibitory concentration (MIC value) in microtitre plates; type: cell-based, Escherichia coli NCTC 8196; settings: Escherichia coli; optical density at 620 nm, 48 hours at 37° C., MIC = ≦20% growth; tested at 100; 10 and 1 ppm (approximate values); (2), (3), (4) at 120; 60; 30; 15; 7.5; 3.75 ppm
In short: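 E. coli NCTC 8196 grown overnight in CASO bouillon, adjusted to 1−5×10^6 KBE/ml, diluted 1:100 and added to DMSO-dissolved compounds in 1:2 dilution series. Incubated 48 h at 37° C; growth read as OD 620 nm. MIC is the lowest concentration giving ≤20% growth versus growth control; duplicates.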

A. niger = experiment: as above; type: cell-based, Aspergillus niger ATCC 6275; settings: Aspergillus niger, 120 h; optical density at 620 nm, 5 days at 28° C., MIC = ≦20% growth; tested at 100; 10 and 1 ppm (approximate values); (2), (3), (4) at 120; 60; 30; 15; 7.5; 3.75 ppm
In short: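 A. niger ATCC 6275 spores, adjusted to 1−5×10^6 KBE/ml and diluted 1:100 in Sabouraud 2% glucose bouillon, were exposed to 2-fold dilutions of DMSO-dissolved compounds for 5 days at 28°C. Growth read as OD at 620 nm. MIC is the lowest concentration giving ≤20% growth versus growth control, tested in duplicate.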

MIC (E. coli)	MIC (A. niger)	SMILES
> 100 µg/mL	> 100 µg/mL	Oc1ccc(/C=C/c2nc(-c3ccc(F)cc3)cs2)cc1 [Compound of formula (2)]
> 100 µg/mL	> 100 µg/mL	CC(C)(C)c1csc(/C=C/c2ccccc2O)n1 [Compound of formula (3)]
> 100 µg/mL	> 100 µg/mL	Oc1ccc(/C=C/c2nc(-c3ccccc3)cs2)cc1 [Compound of formula (4)]
